# Experimental data reported in PubChem BioAssay (NCI).
#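 Test compounds were applied to cells in 96-well plates for 48 hours at 5 doses. GI50: concentration for 50% inhibition of growth. Definition used: TGI = concentration required for complete inhibition of growth.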
# Columns and labels:
# Assay in all cases: growth of human tumour cells (NCI), 48 h
# HCT-116 colon = system: HCT-116 colon
# SK-MEL-5 melanoma = system: SK-MEL-5 melanoma
# SR leukemia = system: SR leukemia
# OVCAR-4 ovarian = system: OVCAR-4 ovarian
# SK-MEL-28 melanoma = system: SK-MEL-28 melanoma
# CCRF-CEM leukemia = system: CCRF-CEM leukemia
# NCI-H522 lung = system: NCI-H522 lung
# DU-145 prostate = system: DU-145 prostate
# NCI-H23 lung = system: NCI-H23 lung
# SNB-19 CNS = system: SNB-19 CNS
# LOX IMVI melanoma = system: LOX IMVI melanoma
# EKVX NSCLC = system: EKVX NSCLC
# CAKI-1 renal = system: CAKI-1 renal
# KM12 colon = system: KM12 colon
# SW-620 colon = system: SW-620 colon
# U251 CNS = system: U251 CNS
# SF-539 CNS = system: SF-539 CNS
# TK-10 renal = system: TK-10 renal
# OVCAR-8 ovarian = system: OVCAR-8 ovarian
# M14 melanoma = system: M14 melanoma
# NCI/ADR-RES ovarian = system: NCI/ADR-RES ovarian
# SN12C renal = system: SN12C renal
# MCF7 breast = system: MCF7 breast
# RXF 393 renal = system: RXF 393 renal
# IGROV1 ovarian = system: IGROV1 ovarian
# UACC-257 melanoma = system: UACC-257 melanoma
# UO-31 renal = system: UO-31 renal
# ACHN renal = system: ACHN renal
# SK-OV-3 ovarian = system: SK-OV-3 ovarian
# HCT-15 colon = system: HCT-15 colon
# HOP-92 NSCLC = system: HOP-92 NSCLC
# A498 renal = system: A498 renal
# NCI-H226 lung = system: NCI-H226 lung
# MDA-MB-435 = system: MDA-MB-435
# NCI-H460 lung = system: NCI-H460 lung
# MOLT-4 leukemia = system: MOLT-4 leukemia
# HS 578T breast = system: HS 578T breast
# MDA-MB-231 breast = system: MDA-MB-231 breast
# MALME-3M melanoma = system: MALME-3M melanoma
# COLO 205 colon = system: COLO 205 colon
# OVCAR-5 ovarian = system: OVCAR-5 ovarian
# A549 NSCLC = system: A549 NSCLC
# OVCAR-3 ovarian = system: OVCAR-3 ovarian
# SK-MEL-2 melanoma = system: SK-MEL-2 melanoma
# BT-549 breast = system: BT-549 breast
# SF-295 CNS = system: SF-295 CNS
# PC-3 prostate = system: PC-3 prostate
# T-47D breast = system: T-47D breast
# HL-60(TB) leukemia = system: HL-60(TB) leukemia
# HOP-62 NSCLC = system: HOP-62 NSCLC
# HT29 colon = system: HT29 colon
# UACC-62 melanoma = system: UACC-62 melanoma
# HCC-2998 colon = system: HCC-2998 colon
# 786-0 renal = system: 786-0 renal
# SF-268 CNS = system: SF-268 CNS
# RPMI-8226 leukemia = system: RPMI-8226 leukemia
structure (smiles),measurement,setting,value
CN(C)CCN1C(=O)c2cccc3c(/C=C/CN4C(=O)c5cccc6cccc(c56)C4=O)ccc(c23)C1=O,GI50,HCT-116 colon,56.9 µM
same,TGI,HCT-116 colon,> 100 µM
same,GI50,SK-MEL-5 melanoma,> 100 µM
same,TGI,SK-MEL-5 melanoma,> 100 µM
same,GI50,SR leukemia,39.2 µM
same,TGI,SR leukemia,> 100 µM
same,GI50,OVCAR-4 ovarian,> 100 µM
same,TGI,OVCAR-4 ovarian,> 100 µM
same,GI50,SK-MEL-28 melanoma,0.766 µM
same,TGI,SK-MEL-28 melanoma,4.71 µM
same,GI50,CCRF-CEM leukemia,0.339 µM
same,TGI,CCRF-CEM leukemia,69.9 µM
same,GI50,NCI-H522 lung,> 100 µM
same,TGI,NCI-H522 lung,> 100 µM
same,GI50,DU-145 prostate,> 100 µM
same,TGI,DU-145 prostate,> 100 µM
same,GI50,NCI-H23 lung,> 100 µM
same,TGI,NCI-H23 lung,> 100 µM
same,GI50,SNB-19 CNS,13.9 µM
same,TGI,SNB-19 CNS,26.9 µM
same,GI50,LOX IMVI melanoma,14.5 µM
same,TGI,LOX IMVI melanoma,27.7 µM
same,GI50,EKVX NSCLC,> 100 µM
same,TGI,EKVX NSCLC,> 100 µM
same,GI50,CAKI-1 renal,13.4 µM
same,TGI,CAKI-1 renal,28.6 µM
same,GI50,KM12 colon,> 100 µM
same,TGI,KM12 colon,> 100 µM
same,GI50,SW-620 colon,> 100 µM
same,TGI,SW-620 colon,> 100 µM
same,GI50,U251 CNS,46.5 µM
same,TGI,U251 CNS,> 100 µM
same,GI50,SF-539 CNS,6.33 µM
same,TGI,SF-539 CNS,19.5 µM
same,GI50,TK-10 renal,34.7 µM
same,TGI,TK-10 renal,82.8 µM
same,GI50,OVCAR-8 ovarian,4.21 µM
same,TGI,OVCAR-8 ovarian,> 100 µM
same,GI50,M14 melanoma,> 100 µM
same,TGI,M14 melanoma,> 100 µM
same,GI50,NCI/ADR-RES ovarian,> 100 µM
same,TGI,NCI/ADR-RES ovarian,> 100 µM
same,GI50,SN12C renal,21.9 µM
same,TGI,SN12C renal,70.5 µM
same,GI50,MCF7 breast,21.1 µM
same,TGI,MCF7 breast,62.4 µM
same,GI50,RXF 393 renal,59.2 µM
same,TGI,RXF 393 renal,> 100 µM
same,GI50,IGROV1 ovarian,> 100 µM
same,TGI,IGROV1 ovarian,> 100 µM
same,GI50,UACC-257 melanoma,> 100 µM
same,TGI,UACC-257 melanoma,> 100 µM
same,GI50,UO-31 renal,17.4 µM
same,TGI,UO-31 renal,48.2 µM
same,GI50,ACHN renal,28.3 µM
same,TGI,ACHN renal,> 100 µM
same,GI50,SK-OV-3 ovarian,> 100 µM
same,TGI,SK-OV-3 ovarian,> 100 µM
same,GI50,HCT-15 colon,> 100 µM
same,TGI,HCT-15 colon,> 100 µM
same,GI50,HOP-92 NSCLC,3.67 µM
same,TGI,HOP-92 NSCLC,20.1 µM
same,GI50,A498 renal,34.1 µM
same,TGI,A498 renal,> 100 µM
same,GI50,NCI-H226 lung,1.92 µM
same,TGI,NCI-H226 lung,35.4 µM
same,GI50,MDA-MB-435,> 100 µM
same,TGI,MDA-MB-435,> 100 µM
same,GI50,NCI-H460 lung,> 100 µM
same,TGI,NCI-H460 lung,> 100 µM
same,GI50,MOLT-4 leukemia,> 100 µM
same,TGI,MOLT-4 leukemia,> 100 µM
same,GI50,HS 578T breast,13.8 µM
same,TGI,HS 578T breast,35.7 µM
same,GI50,MDA-MB-231 breast,35.9 µM
same,TGI,MDA-MB-231 breast,> 100 µM
same,GI50,MALME-3M melanoma,4.06 µM
same,TGI,MALME-3M melanoma,30.5 µM
same,GI50,COLO 205 colon,> 100 µM
same,TGI,COLO 205 colon,> 100 µM
same,GI50,OVCAR-5 ovarian,35.5 µM
same,TGI,OVCAR-5 ovarian,> 100 µM
same,GI50,A549 NSCLC,> 100 µM
same,TGI,A549 NSCLC,> 100 µM
same,GI50,OVCAR-3 ovarian,> 100 µM
same,TGI,OVCAR-3 ovarian,> 100 µM
same,GI50,SK-MEL-2 melanoma,> 100 µM
same,TGI,SK-MEL-2 melanoma,> 100 µM
same,GI50,BT-549 breast,43.5 µM
same,TGI,BT-549 breast,> 100 µM
same,GI50,SF-295 CNS,> 100 µM
same,TGI,SF-295 CNS,> 100 µM
same,GI50,PC-3 prostate,> 100 µM
same,TGI,PC-3 prostate,> 100 µM
same,GI50,T-47D breast,> 100 µM
same,TGI,T-47D breast,> 100 µM
same,GI50,HL-60(TB) leukemia,> 100 µM
same,TGI,HL-60(TB) leukemia,> 100 µM
same,GI50,HOP-62 NSCLC,42 µM
same,TGI,HOP-62 NSCLC,> 100 µM
same,GI50,HT29 colon,> 100 µM
same,TGI,HT29 colon,> 100 µM
same,GI50,UACC-62 melanoma,16.3 µM
same,TGI,UACC-62 melanoma,33.1 µM
same,GI50,HCC-2998 colon,> 100 µM
same,TGI,HCC-2998 colon,> 100 µM
same,GI50,786-0 renal,4.5 µM
same,TGI,786-0 renal,19.5 µM
same,GI50,SF-268 CNS,51.5 µM
same,TGI,SF-268 CNS,> 100 µM
same,GI50,RPMI-8226 leukemia,> 100 µM
same,TGI,RPMI-8226 leukemia,> 100 µM
